Values of other authors as cited in patent US20100241197A1, “METHODS OF USING NITROXIDES IN CONJUNCTION WITH PHOTOSENSITIZERS AND SONOSENSITIZERS” (Mitos Pharmaceuticals, Inc., priority 2003, published 2010).
Read-outs that look alike come from different tables or passages of the source. One block for each compound: values may come before it.

Legend:
[1] = not given; remark: listed apart in the source
[2] = relative to PHOTOFRIN
tumor = conditions: in vivo

- extinction coefficient (at 700 nm): 40 000 M-1 cm-1
Compound: CCOC(=O)C1=Cc2c3nc(cc4nc(cc5[n-]c(cc6[n-]c2c(C)c6CC)c(C)c5CC)C(C)=C4CC)[C@@H](C)[C@]13CC.[Cl-].[Cl-].[Sn] (racemic) [SnET2, tin etiopurpurin]

Compound: C=Cc1c(C)c2cc3nc(c(CC(=O)N[C@@H](CC(=O)[O-])C(=O)[O-])c4[nH]c(cc5nc(cc1[nH]2)C(C)=C5CC)c(C)c4C(=O)[O-])[C@@H](CCC(=O)[O-])[C@@H]3C.[Na+].[Na+].[Na+].[Na+] [Npe6, Mono-L-aspartyl chlorin e6]
- extinction coefficient (absorbance peak at 654 nm): 40 000 M-1 cm-1
- solubility in water / aqueous solutions [1]: highly water soluble

- skin photosensitivity compared with PHOTOFRIN [2]: only slightly less
Compound: Oc1cccc(-c2c3nc(c(-c4cccc(O)c4)c4ccc([nH]4)c(-c4cccc(O)c4)c4nc(c(-c5cccc(O)c5)c5ccc2[nH]5)CC4)C=C3)c1 [m-THPC, Meta-tetra hydroxyphenyl chlorin]

- extinction coefficient (absorbance peak at 650 nm): 34 000 M-1 cm-1
- tumor accumulation (tumor): rapid tumor accumulation
Compound: benzoporphyrin derivative mono-acid A [BPD]
